Earlier results in US4644054A, “Calcitonin analogs with amino acid substituents at position 31” (priority 1985, dated 1987).
Bridge positions count the residues as written; N and C are the ends. Ends that are not written are not given here.

Details: compared with natural human calcitonin

| Substance | activity relative to natural human calcitonin |
| --- | --- |
| Salmon 1 calcitonin | thirty to forty times more active |
| human calcitonin analog with Serine^29 and Threonine^31substituents: human calcitonin analog with Serine at position 29 and Threonine at position 31 (Maier et al. 1974) (CGNLSTCMLGTYTQDFNKFHTFPQTAIGSGTP; disulfide 1-7; ends not checked; UniProt P01258 85-116, looked up, variant V29S A31T) | five times more active |
